Reference: paper PMC3481155, “AhR activation underlies the CYP1A autoinduction by A-998679 in rats” (Frontiers in Genetics, 2012)

System: CYP1A2
Experiment: CYP1A2 mRNA induction in primary human hepatocytes
Format: cell-based
Conditions: 24 h, dose-dependent
Experimental: Rat hepatocytes were isolated in a perfusion procedure as described previously (Elliget and Kolaja, [1983]; Waring et al., [2001]). The beagle dog hepatocytes were isolated in the same manner, except for adjustment of flow rate and buffer volume to scale to liver size. Cells were plated at a seeding density of 1.0 × 10^6 cells per well on 6-well, collagen-type I coated plates (BD Biosciences, Bedford, MA) in hepatocyte plating medium (Celsis, Baltimore, MD). Cells were allowed to attach for 24 h in a 37°C humidified incubator with a 5% CO2 atmosphere and were dosed for 24 h (rat) or 48 h (dog) with vehicle control [0.1% DMSO (v/v)] or 10 μM A-998679 in fresh treatment media (Celsis hepatocyte incubation media) every 24 h. After the last incubation, cells were lysed in 1 ml of Qiazol (Qiagen) and stored at −80°C until RNA isolation. Cryopreserved human hepatocytes (donor designation Hu4198; Invitrogen Life Technologies, Carlsbad, CA) were thawed and plated according to the manufacturer's protocol and allowed to incubate for 24 h. […]
RNA samples were diluted with RNase-free molecular biology grade water to a concentration of 20 ng/μl total RNA. […] Results were analyzed by calculating the fold change of CYP1A1 and/or CYP1A2 mRNA levels normalized to 28S rRNA (ΔΔ Ct) in compound treated cells or tissues compared to vehicle levels. […]

N#Cc1cccc(-c2noc(-c3cccnc3)n2)c1 [A-998679, 3-(5-pyridin-3-yl-1,2,4-oxadiazol-3-yl) benzonitrile]
lowest concentration inducing CYP1A2 mRNA: 3 µM
